In US9657033B2, “Tetrahydronaphthyridine and related bicyclic compounds for inhibition of RORγ activity and the treatment of disease” (Merck Sharp & Dohme Corp., priority 2012, dated 2017) one finds EC50 data, which are given here for 37 molecules.

This experiment deals with RORγ-LBD (Homo sapiens (Human), UniProt P51449). Nature of the experiment: RORγ-Ligand Binding Domain (LBD) TR-FRET Assay Protocol II. The format is biochemical. The following applies: purified RORγ-LBD, SRC1 peptide, overnight at 4° C. The protocol: Part II—Procedures for RORγ-Ligand Binding Domain TR-FRET Assay Protocol II
Sequence of RORγ-LBD (P51449 269-508): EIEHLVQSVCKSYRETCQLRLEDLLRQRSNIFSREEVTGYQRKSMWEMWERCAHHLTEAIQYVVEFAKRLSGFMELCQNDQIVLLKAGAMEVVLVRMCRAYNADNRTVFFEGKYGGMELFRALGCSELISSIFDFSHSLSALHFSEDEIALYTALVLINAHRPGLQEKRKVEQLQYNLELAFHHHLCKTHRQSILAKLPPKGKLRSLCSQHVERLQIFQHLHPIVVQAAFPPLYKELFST
HIS-tagged RORγ-LBD protein was expressed in SF9 cells using a baculovirus expression system. The RORγ-LBD protein was purified by […]. Separately, SF9 cells not expressing recombinant protein were lysed in TBS buffer (25 mM Tris, pH 8.0, 150 mM NaCl) under sonication. The lysate was added to the purified RORγ-LBD in a volume equivalent of 0.75 μL lysate (from 30,000 SF9 cells) per 75 femtomol of RORγ-LBD protein. The resulting mixture was diluted in assay buffer (50 mM Tris pH 7.0, 50 mM KCl, 1 mM EDTA, 0.1 mM DTT, 0.01% BSA) to obtain RORγ-LBD protein at a final concentration of 3 nM.
Compounds to be tested were injected to the assay plate using Acoustic Droplet Ejection technology by Echo 550 liquid handler (Labcyte, Calif.).
A stock of biotinylated-LXXLL peptide from coactivator SRC1 (Biotin-[…]) was prepared in assay buffer and added to each well (100 nM final concentration). A solution of Europium tagged anti-HIS antibody (1.25 nM final concentration) and APC-conjugated streptavidin (8 nM final concentration) were also added to each well.
The final assay mixture was incubated overnight at 4° C., and the fluorescence signal was measured on an Envision plate reader: (Excitation filter=340 nm; APC emission=665 nm; Europium emission=615 nm; dichroic mirror=D400/D630; delay time=100 μs, integration time=200 μs). The EC50 value for test compounds was calculated from the quotient of the fluorescence signal at 665 nm divided by the fluorescence signal at 615 nm
A general note: TR-FRET usually uses a lanthanide donor and a delayed reading to cut background.

Each structure is given as a SMILES string. Where a name gives a salt, the structure may show the parent alone.

Consider `O=C(Nc1cnc2c(c1)N(S(=O)(=O)c1cccc(C(F)(F)F)c1)CC(N1CCOC1=O)C2)c1c(Cl)cccc1Cl` (stereo in doubt) [Compound 98, (R)-2,6-dichloro-N-(7-(2-oxooxazolidin-3-yl)-5-((3-(trifluoromethyl)phenyl)sulfonyl)-5,6,7,8-tetrahydro-1,5-naphthyridin-3-yl)benzamide], for which the concentration giving a half-maximal response (EC50) is 17 nM. With `CC(=O)NC[C@H]1CN(S(=O)(=O)c2cccc(C3CC3)c2)c2cc(NC(=O)c3c(Cl)cccc3Cl)cnc2O1` [Compound 18, (S)-N-(3-(acetamidomethyl)-1-((3-cyclopropylphenyl)sulfonyl)-2,3-dihydro-1H-pyrido[2,3-b][1,4]oxazin-7-yl)-2,6-dichlorobenzamide] the figure was 13 nM; with `Cc1cccc(S(=O)(=O)N2C[C@H](C)Oc3ncc(NC(=O)C(C)C(F)(F)F)cc32)c1` (stereo partly shown) [Compound 30], 111 nM; with `Cc1cccc(S(=O)(=O)N2C[C@H](C)Oc3ncc(NC(=O)C(C)c4ccccc4C)cc32)c1` (stereo partly shown) [Compound 31], 57 nM. In the case of `Cc1cccc(S(=O)(=O)N2C[C@H](C)Oc3ncc(NC(=O)C(C)c4ccc(F)cc4)cc32)c1` (stereo partly shown) [Compound 32] it was 97 nM; in that of `CCC(C)C(=O)Nc1cnc2c(c1)N(S(=O)(=O)c1cccc(C)c1)C[C@H](C)O2` (stereo partly shown) [Compound 33], 152 nM. In the case of `Cc1cccc(S(=O)(=O)N2C[C@H](C)Oc3ncc(NC(=O)C(C)c4ccc(Cl)cc4)cc32)c1` (stereo partly shown) [Compound 34] it was 108 nM; in that of `C[C@H]1CN(S(=O)(=O)c2cccc(C3CC3)c2)c2cc(NC(=O)c3c(Cl)cccc3Cl)cnc2O1` [Compound 35], 7 nM; in that of `Cc1cccc(S(=O)(=O)N2C[C@H](NC(=O)OC(C)(C)C)Cc3ncc(NC(=O)c4c(Cl)cccc4Cl)cc32)c1` [Compound 39, (R)-tert-butyl (7-(2,6-dichlorobenzamido)-1-(m-tolylsulfonyl)-1,2,3,4-tetrahydro-1,5-naphthyridin-3-yl)carbamate], 25 nM.

`Cc1cccc(S(=O)(=O)N2C[C@H](N)Cc3ncc(NC(=O)c4c(Cl)cccc4Cl)cc32)c1` [Compound 40, (R)-N-(7-amino-5-(m-tolylsulfonyl)-5,6,7,8-tetrahydro-1,5-naphthyridin-3-yl)-2,6-dichlorobenzamide trifluoroacetic acid salt] returned an EC50 of 18 nM. Take `CC(=O)N[C@@H]1Cc2ncc(NC(=O)c3c(Cl)cccc3Cl)cc2N(S(=O)(=O)c2cccc(C)c2)C1` [Compound 41, (R)-N-(7-acetamido-5-(m-tolylsulfonyl)-5,6,7,8-tetrahydro-1,5-naphthyridin-3-yl)-2,6-dichlorobenzamide]: the EC50 stood at 18 nM. In the case of `COC(=O)N[C@@H]1Cc2ncc(NC(=O)c3c(Cl)cccc3Cl)cc2N(S(=O)(=O)c2cccc(C)c2)C1` [Compound 42, (R)-methyl (7-(2,6-dichlorobenzamido)-1-(m-tolylsulfonyl)-1,2,3,4-tetrahydro-1,5-naphthyridin-3-yl)carbamate] it was 25 nM; in that of `CC(=O)NC[C@H]1CN(S(=O)(=O)c2cccc(C3CC3)c2)c2cc(NC(=O)c3c(Cl)cccc3Cl)cnc2O1` [Compound 43], 24 nM. With `CC(C)(C)OC(=O)N[C@@H]1Cc2ncc(NC(=O)c3c(Cl)cccc3Cl)cc2N(S(=O)(=O)c2cccc(Cl)c2)C1` [Compound 45] the figure was 6 nM; with `CC(=O)NC1Cc2ncc(NC(=O)c3c(Cl)cccc3Cl)cc2N(S(=O)(=O)c2cccc(Cl)c2)C1` (stereo not shown) [Compound 46], 72 nM; with `CC(C)OC(=O)N[C@H]1Cc2ncc(NC(=O)c3c(Cl)cccc3Cl)cc2N(S(=O)(=O)c2cccc(C(F)(F)F)c2)C1` [Compound 47], 36 nM. On to `CN(C)C(=O)NC1Cc2ncc(NC(=O)c3c(Cl)cccc3Cl)cc2N(S(=O)(=O)c2cccc(C(F)(F)F)c2)C1` (stereo not shown) [Compound 48], for which a half-maximal effect (EC50) was put at 10 nM.

`Cc1nn(C(F)F)cc1S(=O)(=O)N1C[C@@H](NC(=O)C(F)(F)F)Cc2ncc(NC(=O)c3c(F)cccc3Cl)cc21` [Compound 49] registered an EC50 of 12 nM. With `Cc1nn(C(F)F)cc1S(=O)(=O)N1C[C@H](NC(=O)C(F)(F)F)Cc2ncc(NC(=O)c3c(F)cccc3Cl)cc21` [Compound 50] the figure was 31 nM; with `C[C@H](N)C(=O)N[C@H]1Cc2ncc(NC(=O)c3c(Cl)cccc3Cl)cc2N(S(=O)(=O)c2cccc(C(F)(F)F)c2)C1` [Compound 51], 852 nM; with `C[C@H](O)C(=O)N[C@H]1Cc2ncc(NC(=O)c3c(Cl)cccc3Cl)cc2N(S(=O)(=O)c2cccc(C(F)(F)F)c2)C1` [Compound 52], 74 nM.

Take `N[C@H]1Cc2ncc(NC(=O)c3c(Cl)cccc3Cl)cc2N(S(=O)(=O)c2cccc(C(F)(F)F)c2)C1` [Compound 53]: the EC50 was 25 nM.

As for `CC(C)(C)OC(=O)N[C@H]1Cc2ncc(NC(=O)c3c(Cl)cccc3Cl)cc2N(S(=O)(=O)c2cccc(C(F)(F)F)c2)C1` [Compound 54], the EC50 is 17 nM. With `C[C@H](N)C(=O)N[C@@H]1Cc2ncc(NC(=O)c3c(Cl)cccc3Cl)cc2N(S(=O)(=O)c2cccc(C(F)(F)F)c2)C1` [Compound 55] the figure was 32 nM.

In turn, `C[C@H](O)C(=O)N[C@@H]1Cc2ncc(NC(=O)c3c(Cl)cccc3Cl)cc2N(S(=O)(=O)c2cccc(C(F)(F)F)c2)C1` [Compound 56] showed an EC50 of 132 nM. Compared with the last molecule, the EC50 is about 4.1-fold higher. In the case of `N[C@H]1Cc2ncc(NC(=O)c3c(Cl)cccc3Cl)cc2N(S(=O)(=O)c2cccc(C(F)(F)F)c2)C1` [Compound 57] it was 24 nM. With `CC(C)OC(=O)N[C@@H]1Cc2ncc(NC(=O)c3c(Cl)cccc3Cl)cc2N(S(=O)(=O)c2cccc(C(F)(F)F)c2)C1` [Compound 58] the figure was 13 nM. With `CC(C)(C)OC(=O)N[C@@H]1Cc2ncc(NC(=O)c3c(Cl)cccc3Cl)cc2N(S(=O)(=O)c2cccc(C(F)(F)F)c2)C1` [Compound 59] the figure was 24 nM; with `N[C@H](CO)C(=O)NC1Cc2ncc(NC(=O)c3c(Cl)cccc3Cl)cc2N(S(=O)(=O)c2cccc(C(F)(F)F)c2)C1` (stereo partly shown) [Compound 60], 23 nM; with `CCOC(=O)N[C@H]1Cc2ncc(NC(=O)c3c(Cl)cccc3Cl)cc2N(S(=O)(=O)c2cccc(C(F)(F)F)c2)C1` [Compound 63], 26 nM. For the molecule `CCOC(=O)N[C@@H]1Cc2ncc(NC(=O)c3c(Cl)cccc3Cl)cc2N(S(=O)(=O)c2cccc(C(F)(F)F)c2)C1` [Compound 64], the midpoint of the response, the EC50, lay at 18 nM. With `Cc1nn(C(F)F)cc1S(=O)(=O)N1C[C@@H](NC(=O)OC(C)C)Cc2ncc(NC(=O)c3c(F)cccc3Cl)cc21` [Compound 65] the figure was 9 nM; with `Cc1nn(C(F)F)cc1S(=O)(=O)N1C[C@H](NC(=O)OC(C)C)Cc2ncc(NC(=O)c3c(F)cccc3Cl)cc21` [Compound 66], 204 nM; with `Cc1cccc(S(=O)(=O)N2C[C@H](NC(=O)[C@H](C)O)Cc3ncc(NC(=O)c4c(Cl)cccc4Cl)cc32)c1` [Compound 67], 23 nM. In the case of `CC(=O)NC1Cc2ncc(NC(=O)c3c(Cl)cccc3Cl)cc2N(S(=O)(=O)c2cccc(C3CC3)c2)C1` (stereo not shown) [Compound 68] it was 25 nM; in that of `CC(C)(C)OC(=O)NC1Cc2ncc(NC(=O)c3c(Cl)cccc3Cl)cc2N(S(=O)(=O)c2cccc(C3CC3)c2)C1` (stereo not shown) [Compound 69], 13 nM; in that of `NC1Cc2ncc(NC(=O)c3c(Cl)cccc3Cl)cc2N(S(=O)(=O)c2cccc(C3CC3)c2)C1` (stereo not shown) [Compound 70], 38 nM.

The EC50 is the concentration giving half of the maximal effect. A lower EC50 goes with greater potency.
